Source: patent US9096591B2, “Tetracyclic compounds” (Medivation Technologies, Inc., priority 2007, dated 2015)
Where two headings read alike, the source gives them in different places.

Columns and labels:
[1] = biological target: T1, human recombinant histamine H2 receptor (Homo sapiens, UniProt P25021); assay: Histamine H2 radioligand binding ([125I]Aminopotentidine); conditions: read-out: Inhibition of ligand binding, Hist. H2
T1 construct: expressed in transfected cells; host or cells: CHO-K1 cells
T1 sequence (P25021 whole entry): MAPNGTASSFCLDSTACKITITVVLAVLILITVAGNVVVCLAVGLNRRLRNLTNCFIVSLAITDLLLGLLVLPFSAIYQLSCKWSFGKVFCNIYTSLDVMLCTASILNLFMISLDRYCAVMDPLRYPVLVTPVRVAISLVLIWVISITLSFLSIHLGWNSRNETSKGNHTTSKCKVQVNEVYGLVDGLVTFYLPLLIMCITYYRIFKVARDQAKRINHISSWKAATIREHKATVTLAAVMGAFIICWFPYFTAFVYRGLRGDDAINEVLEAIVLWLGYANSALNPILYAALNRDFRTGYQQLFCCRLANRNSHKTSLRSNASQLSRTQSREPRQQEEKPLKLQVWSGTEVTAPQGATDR
Procedure, shortened: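 Test compounds were assessed for their ability to displace radioligand from the human recombinant histamine H2 receptor. Non-specific binding was determined in the presence of 3 μM Tiotidine, and results were expressed as percent inhibition of specific binding, with 1% DMSO serving as the vehicle.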

[2] = biological target: T2, human recombinant adrenergic α1D receptor (Homo sapiens, UniProt P25100); assay: Adrenergic α1D radioligand binding ([3H]Prozosin); design: Inhibition of ligand binding, Adren. alpha1D: concentration or dose not given beside the values; conditions: percent inhibition of specific binding
T2 construct: expressed in transfected cells; host or cells: HEK-293 cells
T2 sequence (P25100 1-572): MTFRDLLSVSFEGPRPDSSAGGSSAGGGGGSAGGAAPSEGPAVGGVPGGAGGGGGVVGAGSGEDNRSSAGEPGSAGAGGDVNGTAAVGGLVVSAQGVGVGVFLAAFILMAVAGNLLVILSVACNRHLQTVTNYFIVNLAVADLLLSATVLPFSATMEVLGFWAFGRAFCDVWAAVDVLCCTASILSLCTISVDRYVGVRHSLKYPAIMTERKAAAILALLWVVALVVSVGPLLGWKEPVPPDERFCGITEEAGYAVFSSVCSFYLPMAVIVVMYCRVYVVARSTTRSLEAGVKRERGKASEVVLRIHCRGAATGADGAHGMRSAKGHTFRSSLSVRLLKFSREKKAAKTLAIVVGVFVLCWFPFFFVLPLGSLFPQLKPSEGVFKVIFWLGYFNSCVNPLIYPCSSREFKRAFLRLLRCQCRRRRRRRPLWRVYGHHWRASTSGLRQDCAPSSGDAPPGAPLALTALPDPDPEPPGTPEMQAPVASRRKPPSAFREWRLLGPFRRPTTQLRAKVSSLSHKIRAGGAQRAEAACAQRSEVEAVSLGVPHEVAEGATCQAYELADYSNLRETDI
Description: Compounds of invention were incubated with 0.6 nM [^3H]Prozosin for 60 minutes at 25° C. Non-specific binding was estimated in the presence of 10 μM phentolamine. Receptor proteins were filtered and washed, the filters were then counted to determine [^3H]Prozosin specifically bound. […] Biochemical assay results are presented as the percent inhibition of specific binding in Table 6.

[3] = biological target: T3, human recombinant adrenergic α2B receptor (Homo sapiens, UniProt P18089); assay: Adrenergic α2B radioligand binding ([3H]Rauwolscine); design: Inhibition of ligand binding, Adren. alpha2B: concentration or dose not given beside the values; conditions: percent inhibition of specific binding
T3 construct: expressed in transfected cells; host or cells: CHO-K1 cells
T3 sequence (P18089 1-450): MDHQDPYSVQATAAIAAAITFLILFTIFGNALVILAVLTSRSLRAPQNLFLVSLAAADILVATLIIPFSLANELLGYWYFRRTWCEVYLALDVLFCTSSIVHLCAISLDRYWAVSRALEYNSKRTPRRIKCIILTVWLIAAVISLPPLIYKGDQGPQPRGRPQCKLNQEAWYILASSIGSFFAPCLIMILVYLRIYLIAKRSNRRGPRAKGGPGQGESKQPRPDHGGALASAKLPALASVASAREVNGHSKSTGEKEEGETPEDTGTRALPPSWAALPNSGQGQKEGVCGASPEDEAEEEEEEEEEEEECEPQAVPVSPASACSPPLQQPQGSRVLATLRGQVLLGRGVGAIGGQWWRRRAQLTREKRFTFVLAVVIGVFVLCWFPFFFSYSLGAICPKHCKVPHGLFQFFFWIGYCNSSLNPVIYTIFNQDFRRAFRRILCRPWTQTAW
Procedure, shortened: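 Membranes from CHO-K1 cells expressing the receptor, in 50 mM Tris-HCl pH 7.4 with 12.5 mM MgCl2, 1 mM EDTA, 0.2% BSA, incubated with compounds and 2.5 nM [3H]Rauwolscine for 60 minutes at 25 °C.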

[4] = biological target: T4, human recombinant serotonin (5-Hydroxytryptamine) 5-HT2A receptor (Homo sapiens, UniProt P28223); assay: Serotonin 5-HT2A radioligand binding ([3H]Ketanserin); conditions: percent inhibition of specific binding
T4 construct: expressed in transfected cells; host or cells: CHO-K1 cells
T4 sequence (P28223 whole entry): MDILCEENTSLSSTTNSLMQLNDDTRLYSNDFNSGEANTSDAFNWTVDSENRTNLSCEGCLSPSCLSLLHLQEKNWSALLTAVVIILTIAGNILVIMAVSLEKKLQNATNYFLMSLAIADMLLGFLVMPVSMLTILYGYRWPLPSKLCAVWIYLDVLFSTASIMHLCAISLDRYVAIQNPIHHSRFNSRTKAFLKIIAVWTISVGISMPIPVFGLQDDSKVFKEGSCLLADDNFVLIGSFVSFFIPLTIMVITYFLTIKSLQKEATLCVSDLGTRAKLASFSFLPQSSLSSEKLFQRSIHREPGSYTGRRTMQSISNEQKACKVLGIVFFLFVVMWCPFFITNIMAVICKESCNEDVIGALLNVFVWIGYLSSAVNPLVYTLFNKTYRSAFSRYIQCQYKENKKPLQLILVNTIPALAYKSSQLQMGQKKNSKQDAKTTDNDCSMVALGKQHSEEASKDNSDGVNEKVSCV
Description: (§1) Compounds of the invention were incubated with 0.5 nM [^3H]Ketanserin for 60 minutes at 25° C. Non-specific binding was estimated in the presence of 1 μM Mianserin. Receptor proteins were filtered and washed, the filters were then counted to determine [^3H]Ketanserin specifically bound. […] Biochemical assay results are presented as the percent inhibition of specific binding in Table 6.

[5] = biological target: T5, human recombinant serotonin (5-Hydroxytryptamine) 5-HT2C receptor (Homo sapiens, UniProt P28335); assay: Serotonin 5-HT2C radioligand binding ([3H]Mesulergine); design: Inhibition of ligand binding, Ser. 5-HT2C: concentration or dose not given beside the values; conditions: percent inhibition of specific binding
T5 construct: expressed in transfected cells; host or cells: CHO-K1 cells
T5 sequence (P28335 33-458): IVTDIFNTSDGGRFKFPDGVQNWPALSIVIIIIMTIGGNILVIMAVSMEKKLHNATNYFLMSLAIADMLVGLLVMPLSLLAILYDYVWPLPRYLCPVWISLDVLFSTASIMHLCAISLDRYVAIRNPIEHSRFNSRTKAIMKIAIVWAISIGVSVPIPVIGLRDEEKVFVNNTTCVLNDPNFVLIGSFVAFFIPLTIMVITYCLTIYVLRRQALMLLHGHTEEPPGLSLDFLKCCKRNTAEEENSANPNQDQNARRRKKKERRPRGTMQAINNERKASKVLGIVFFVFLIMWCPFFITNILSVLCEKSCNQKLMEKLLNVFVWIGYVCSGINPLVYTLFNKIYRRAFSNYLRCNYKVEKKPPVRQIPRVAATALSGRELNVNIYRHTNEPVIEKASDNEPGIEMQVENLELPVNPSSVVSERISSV
Description: as §1, with “1” for “0.5”, “[^3H]Mesulergine” for “[^3H]Ketanserin”

[6] = percent inhibition of specific binding, screened at 1 μM

Compound	inhibition at 1 µM [1, 6]	Inhibition of ligand binding, Adren. alpha1D [2]	Inhibition of ligand binding, Adren. alpha2B [3]	Inhibition of ligand binding, Ser. 5-HT2A [4]	Inhibition of ligand binding, Ser. 5-HT2C [5]	inhibition at 1 µM [1]
CN1CCc2c(c3cc(Cl)c(F)cc3n2CCc2ccc(C(F)(F)F)nc2)C1 [Compound 343]	29%	61%	117%	89%	69%	
Cc1ccc2c(c1)c1c(n2CC(=O)N2CCCCC2)CCN(C)C1 [Compound 395, 2-(1,2,3,4-tetrahydro-2,8-dimethylpyrido[4,3-b]indol-5-yl)-1-(piperidin-1-yl)ethanone]	4%	9%	2%	16%	50%	
Cc1cncc(CCn2c3c(c4cc(C)ccc42)CN(C)CC3)c1 [Compound 429, 2,3,4,5-tetrahydro-2,8-dimethyl-5-(2-(5-methylpyridin-3-yl)ethyl)-1H-pyrido[4,3-b]indole]	68%	69%	115%	76%	84%	
CN1CCc2c(c3cc(Cl)cc(F)c3n2CCc2ccc(C(F)(F)F)nc2)C1 [Compound 338, 8-chloro-6-fluoro-5-(2-(6-(trifluoromethyl)pyridin-3-yl)ethyl)-2,3,4,5-tetrahydro-2-methyl-1H-pyrido[4,3-b]indole]	78%	83%	104%	94%	68%	
Cc1ccc(CCn2c3c(c4cc(Cl)ccc42)CN(C)CC3)cc1 [Compound 43]	100%	98%	108%	99%	100%	
Cc1ccc2c(c1)c1c(n2CC(=O)N2CCN(C)CC2)CCN(C)C1 [Compound 459, 2-(1,2,3,4-tetrahydro-2,8-dimethylpyrido[4,3-b]indol-5-yl)-1-(4-methylpiperazin-1-yl)ethanone]	-4%	0%	−20%	1%	3%	
Cc1ccc2c(c1)c1c(n2CCc2ccc(C(C)C)nc2)CCN(C)C1 [Compound 360, 5-[2-(6-Isopropyl-pyridin-3-yl)-ethyl]-2,8-dimethyl-2,3,4,5-tetrahydro-1H-pyrido[4,3-b]indole]	75%	96%	115%	97%	83%	
CCc1ccc2c(c1)c1c(n2CCc2ccc(C(F)(F)F)nc2)CCN(C)C1 [Compound 358, 8-Ethyl-2-methyl-5-[2-(6-trifluoromethyl-pyridin-3-yl)-ethyl]-2,3,4,5-tetrahydro-1H-pyrido[4,3-b]indole]	47%	95%	109%	95%	78%	
CN1CCc2c(c3cccc(Cl)c3n2CCc2ccccc2)C1 [Compound 83]	97%	92%	96%	100%	99%	
Cc1ccc2c(c1)c1c(n2CCc2cncnc2)CCN(C)C1 [Compound 387, 2,8-Dimethyl-5-(2-pyrimidin-5-yl-ethyl)-2,3,4,5-tetrahydro-1H-pyrido[4,3-b]indole]	11%	47%	95%	54%	76%	
CN1CCc2c(c3cc(Cl)ccc3n2CCc2ccc(Cl)cc2)C1 [Compound 45, 5-(4-chlorophenethyl)-8-chloro-2,3,4,5-tetrahydro-2-methyl-1H-pyrido[4,3-b]indole]	98%	92%	102%	100%	97%	
CN1CCc2c(c3cc(C(F)(F)F)ccc3n2CCc2ccccc2)C1 [Compound 80, 8-(trifluoromethyl)-2,3,4,5-tetrahydro-2-methyl-5-phenethyl-1H-pyrido[4,3-b]indole]	71%	75%	105%	88%	90%	
Cc1ccc(CCn2c3c(c4cc(Cl)ccc42)CN(C)CC3)cn1 [Compound 225, 8-chloro-2,3,4,5-tetrahydro-2-methyl-5-(2-(6-methylpyridin-3-yl)ethyl)-1H-pyrido[4,3-b]indole]		86%	107%	92%	91%	72%
Cc1cccc2c3c(n(CCc4ccc(C(F)(F)F)nc4)c12)CCN(C)C3 [Compound 380, 5-(2-(6-(trifluoromethyl)pyridin-3-yl)ethyl)-2,3,4,5-tetrahydro-2,6-dimethyl-1H-pyrido[4,3-b]indole]	69%	73%	103%	88%	70%	
CCc1ccc2c(c1)c1c(n2CCc2cnc(C)nc2)CCN(C)C1 [Compound 362, 8-Ethyl-2-methyl-5-[2-(2-methyl-pyrimidin-5-yl)-ethyl]-2,3,4,5-tetrahydro-1H-pyrido[4,3-b]indole]	19%	76%	82%	27%	40%	
